From patent publication US20220380341A1, “INHIBITORS OF HIV-1 NEF FOR THE TREATMENT OF HIV DISEASE” (priority 2018, published 2022)
pKd: −log10 of the molar value. Like-named read-outs stand apart in the source and are kept apart here.

Assays:
HIV-1NL4-3 = assay: HIV-1 infectivity assay in TZM-bl reporter cell line (LTR-luciferase, 48 h); format: cell-based; details: Human immunodeficiency virus 1, TZM-bl
How it was run: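 TZM-bl cells infected with HIV-1NL4-3 ± compound (1 μM), luciferase measured at 48 h. Normalization: DMSO/wild-type = 0% inhibition, DMSO/Nef-defective = 100% of Nef-dependent effect.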

TZM-bl cell line = format: cell-based; details: human, 1 μM
How it was run: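 Luciferase read-out 48 h post-infection; compound at 1 μM during HIV-1NL4-3 infection of TZM-bl cells. Percent inhibition scaled to DMSO wild-type virus (0%) and DMSO Nef-defective virus (100% of Nef-dependent effect). Viability checked separately in uninfected cells by Cell Titer Blue.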

HIV-1 NefNL4-3 = HIV-1 NefNL4-3 (Human immunodeficiency virus type 1 group M subtype B, UniProt P03406, A33V/T15A/T51N/V11I); assay: Surface plasmon resonance binding to recombinant full-length Nef (NL4-3); details: for Nef NL4-3 Binding, SPR 1:1 or 2-site fitting KD1: 1:1 Langmuir fit where the KD2 cell says '1 to 1 fitting', else 2-site fit; for RU30/RUNef (extent of binding): response units at 30 μM relative to Nef immobilized on the SPR chip
[1] = 48 h, Table 1, TZM-bl cells, 1 μM, 48 h, 100% = Nef-defective HIV-1, read-out: HIV-1 Infectivity % Inhibition Norm. to Δ-Nef @ 1 μM
[2] = 1.0 μM, TZM-bl reporter cell line, Table 4, read-out: % Infectivity Inhibition
[3] = KD, M, Table 4, SPR fit 1:1 Langmuir, KD = koff/kon
[4] = Table 4, 1:1 Langmuir fit, T = 1/koff
[5] = KD, M, Table 4, SPR fit 2-step induced fit, KD = koff/kon × koff2/(koff2 + kon2)
[6] = Nef NL4-3 Binding, SPR 2-state fitting KD, Table 1, 2-step induced-fit model
[7] = Table 4, 2-step induced fit, T = 1/koff2

Row | SMILES | inhibition at 1 µM (HIV-1NL4-3; [1]) | Percent Viability @ 1 μM (TZM-bl cells) (TZM-bl cell line) | pKd (HIV-1 NefNL4-3) | inhibition at 1 µM (HIV-1NL4-3; [2]) | % Cell Viability (TZM-bl cell line) | pKd (HIV-1 NefNL4-3; [3]) | T, minutes (residence time) (HIV-1 NefNL4-3; [4]) | RU30/RUNef (extent of binding) (HIV-1 NefNL4-3) | pKd (HIV-1 NefNL4-3; [5]) | T, minutes (residence time) (HIV-1 NefNL4-3; [7]) | other results
1 | CC[C@H](O)C(=O)N1CCC(c2nn(-c3nc4ccccc4[nH]3)c(O)c2CCc2ccc(F)cc2)CC1 [Compound I-733, (2S)-1-{4-[1-(1H-1,3-benzodiazol-2-yl)-4-[2-(4-fluorophenyl)ethyl]-5-hydroxy-1H-pyrazol-3-yl]piperidin-1-yl}-2-hydroxybutan-1-one] | 56.5% | 98.8% | 4.57 |  |  |  |  |  |  |  | 
2 | Oc1c(CCc2ccc(F)cc2)c(CC2CCN(Cc3ccccn3)CC2)nn1-c1nc2ccccc2[nH]1 [Compound I-807, 1-(1H-1,3-benzodiazol-2-yl)-4-[2-(4-fluorophenyl)ethyl]-3-({1-[(pyridin-2-yl)methyl]piperidin-4-yl}methyl)-1H-pyrazol-5-ol] | 40.4% | 99.0% |  |  |  |  |  |  |  |  | Nef NL4-3 Binding, SPR 1:1 or 2-site fitting KD1 (HIV-1 NefNL4-3; Table 1): No Interaction
3 | CN(C)C(=O)N1CCCC(Cc2c(C3CC3)nn(-c3nc4ccccc4[nH]3)c2O)C1 (stereo not drawn) [Compound I-782, 3-{[1-(1H-1,3-benzodiazol-2-yl)-3-cyclopropyl-5-hydroxy-1H-pyrazol-4-yl]methyl}-N,N-dimethylpiperidine-1-carboxamide] |  |  |  | 61.1% | 98.8% | 5.03 | 3.62E + 00 minutes | 5.13E- 03 |  |  | 
4 | O=C(C1CCOC1)N1CCC(c2nn(-c3nc4ccccc4[nH]3)c(O)c2CCc2ccc(F)cc2)CC1 (stereo not drawn) [Compound I-736, 1-(1H-1,3-benzodiazol-2-yl)-4-[2-(4-fluorophenyl)ethyl]-3-[1-(oxolane-3-carbonyl)piperidin-4-yl]-1H-pyrazol-5-ol] | 7.5% | 96.0% | 7.00 | 7.5% | 96.0% |  |  | 1.02E- 02 | 8.69 | 1.97E + 03 minutes | pKd (HIV-1 NefNL4-3; [6]): 8.69; pKd (HIV-1 NefNL4-3; read-out: Nef NL4-3 Binding, SPR 1:1 or 2-site fitting KD2, Table 1, 2-site fit, second component): 5.71
5 | CC(C)(C)c1nn(-c2nc3ccccc3[nH]2)c(O)c1CC1CCOCC1 [Compound I-180, 1-(1H-1,3-benzodiazol-2-yl)-3-tert-butyl-4-[(oxan-4-yl)methyl]-1H-pyrazol-5-ol] |  |  |  | 74.8% | 100% | 5.14 | 2.48E + 00 minutes | 2.62E- 03 |  |  | 
6 | Oc1c(CC2CCOCC2)c(-c2cccc(F)c2)nn1-c1nc2ccccc2[nH]1 [Compound I-184, 1-(1H-1,3-benzodiazol-2-yl)-3-(3-fluorophenyl)-4-[(oxan-4-yl)methyl]-1H-pyrazol-5-ol] |  |  |  | 100% | 100% | 5.45 | 6.46E + 00 minutes | 2.48E- 03 |  |  | 
7 | Oc1c(CCc2ccc(F)cc2)c(-c2ccc(C(F)(F)F)cc2)nn1-c1cc(C2CC2)n[nH]1 [Compound I-619, 5′-cyclopropyl-4-[2-(4-fluorophenyl)ethyl]-3-[4-(trifluoromethyl)phenyl]-2′H-[1,3′-bipyrazol]-5-ol] |  | 105.5% |  |  |  |  |  |  |  |  | inhibition at 1 µM (HIV-1NL4-3; 48 h, Table 2, TZM-bl cells, 1 μM, 48 h, 100% = Nef-defective HIV-1, read-out: HIV-1 Infectivity % Inhibition Norm. to Δ-Nef @ 1 μM): 0%; Nef NL4-3 Binding, SPR 1:1 or 2-site fitting KD1 (HIV-1 NefNL4-3; Table 2): No interaction
8 | CN1CCN(CC(=O)N2CCC(Cc3nn(-c4nc5ccccc5[nH]4)c(O)c3CCc3ccc(F)cc3)CC2)CC1 [Compound I-768, 1-(4-{[1-(1H-1,3-benzodiazol-2-yl)-4-[2-(4-fluorophenyl)ethyl]-5-hydroxy-1H-pyrazol-3-yl]methyl}piperidin-1-yl)-2-(4-methylpiperazin-1-yl)ethan-1-one] | -34.5% | 99.8% | 5.42 |  |  |  |  |  |  |  | 
9 | COc1cc(N2CCC(CCc3c(C4CC4)nn(-c4nc5cc(Cl)ccc5[nH]4)c3O)CC2)nc(OC)n1 [Compound I-902, 1-(5-chloro-1H-1,3-benzodiazol-2-yl)-3-cyclopropyl-4-{2-[1-(2,6-dimethoxypyrimidin-4-yl)piperidin-4-yl]ethyl}-1H-pyrazol-5-ol] | 13.8% | 106.5% | 8.18 | 13.8% | 100% |  |  | 7.18E- 03 | 11.44 | 1.46E + 06 minutes | pKd (HIV-1 NefNL4-3; [6]): 11.44
10 | Oc1c(CC2CCOCC2)c(-c2ccc(F)c(F)c2)nn1-c1nc2ccccc2[nH]1 [Compound I-185, 1-(1H-1,3-benzodiazol-2-yl)-3-(3,4-difluorophenyl)-4-[(oxan-4-yl)methyl]-1H-pyrazol-5-ol] |  |  |  | 100% | 95.1% |  |  | 4.57E- 03 | 5.47 | 1.04E + 01 minutes | 
